From US20240310365A1, “DEVICE FOR EVALUATING INNER EAR DRUG DELIVERY” (North Carolina State University, priority 2023, published 2024)

Key:
[1] = test system: porcine RWM; assay: Ex-vivo porcine RWM device permeability measurement; type: in vitro ADME; details: Dex ~400 μg/ml
[2] = humans; after intratympanic DSP 0.4-1.8 ml of 4 mg/ml; cited from earlier work

## C[C@@H]1C[C@H]2[C@@H]3CCC4=CC(=O)C=C[C@]4(C)[C@@]3(F)[C@@H](O)C[C@]2(C)[C@@]1(O)C(=O)CO [Dex, dexamethasone]
[1]
  time for passage through the porcine RWM: < 0.5 h
[2]
  dexamethasone concentration in perilymph: about 1.4 μg/
